# Earlier results, collected in patent US5419315A, “Intrapulmonary delivery of hormones” (Aradigm Corporation, priority 1994, dated 1995).
# Conditions: in vivo
Bioavailability (%),bioavailability when administered intranasally,Compound
10%,,NC(=O)CC[C@@H]1NC(=O)[C@H](Cc2ccccc2)NC(=O)[C@H](Cc2ccc(O)cc2)NC(=O)CCSSC[C@@H](C(=O)N2CCC[C@H]2C(=O)N[C@H](CCCN=C(N)N)C(=O)NCC(N)=O)NC(=O)[C@H](CC(N)=O)NC1=O [Desmopressin]
< 10%,relatively low,CCNC(=O)[C@@H]1CCCN1C(=O)[C@H](CCCNC(=N)N)NC(=O)[C@H](CC(C)C)NC(=O)[C@@H](CC(C)C)NC(=O)[C@H](Cc1ccc(O)cc1)NC(=O)[C@H](CO)NC(=O)[C@H](Cc1c[nH]c2ccccc12)NC(=O)[C@H](Cc1c[nH]cn1)NC(=O)[C@@H]1CCC(=O)N1 [Leuprolide]
2%,,CC(C)C[C@H](NC(=O)[C@@H](Cc1ccc2ccccc2c1)NC(=O)[C@H](Cc1ccc(O)cc1)NC(=O)[C@H](CO)NC(=O)[C@H](Cc1c[nH]c2ccccc12)NC(=O)[C@H](Cc1c[nH]cn1)NC(=O)[C@@H]1CCC(=O)N1)C(=O)N[C@@H](CCCNC(=N)N)C(=O)N1CCC[C@H]1C(=O)NCC(N)=O [Nafarelin]

Compound,Bioavailability (%),bioavailability when administered intranasally
LHRH,1.5%,
Secretin,10%,

# Same assay, conditions: intranasal (nasal delivery)
row,Compound,Bioavailability (%)
1,Calcitonin,< 1%
2,Glucagon,< 1%
3,CC[C@H](C)[C@@H]1NC(=O)[C@H](Cc2ccc(O)cc2)NC(=O)[C@@H](N)CSSC[C@@H](C(=O)N2CCC[C@H]2C(=O)N[C@@H](CC(C)C)C(=O)NCC(N)=O)NC(=O)[C@H](CC(N)=O)NC(=O)[C@H](CCC(N)=O)NC1=O [Oxytocin],1%
4,C[C@H](N)C(=O)NCC(=O)N[C@H]1CSSC[C@@H](C(=O)O)NC(=O)[C@H](CO)NC(=O)[C@H]([C@@H](C)O)NC(=O)[C@H](Cc2ccccc2)NC(=O)[C@H]([C@@H](C)O)NC(=O)[C@H](CCCCN)NC(=O)[C@H](Cc2c[nH]c3ccccc23)NC(=O)[C@H](Cc2ccccc2)NC(=O)[C@H](Cc2ccccc2)NC(=O)[C@H](CC(N)=O)NC(=O)[C@H](CCCCN)NC1=O [Somatostatin],75%
5,Growth hormone,< 1%
6,"GHRH (YADAIFTNSYRKVLGQLSARKLLQDIMSRQQGESNQERGA; Somatoliberin; UniProt P01286 32-71, looked up, fragment)",< 1%
